{
  "source": "patent US7759101B2",
  "about": "“Ginsenoside glycosidases hydrolyzing ginsenoside sugar moieties and uses thereof” (priority 2000, dated 2010)",
  "key": {"[1]": {"test_system": "ginsenoside glycosidases from Tremella", "experiment": "Hydrolysis of Rb1 with ginsenoside glycosidases from Tremella", "type": "biochemical, Tremella sp. FFCCDL-12 g", "details": "1% Rb1 in acetate buffer containing 20% ethanol, 40° C., 20 hours", "procedure": "Tremella sp. FFCCDL-12 g (available from Food Fermentation Culture Collection of Dalian Institute of Light Industry) was cultured on a solid medium containing 125 g of ginseng powder, 374 g of wheat bran and 500 ml of water for 5 to 7 days. Then 2500 ml of 0.01 M acetate buffer pH 5.0 was added to the solid medium to stand for 2 hours. Insolubles were removed by centrifugation and approximately 2000 ml liquid was obtained. (NH4)2SO4 powder was added to the liquid with stirring to 70% saturation. The solution was stored at 4° C. overnight and centrifuged to collect the pellets. The pellets were resuspended and the suspension was dialyzed against 0.01M acetate buffer pH 5. Then the solution was diluted in 0.01 M acetate buffer to a volume of 150 ml. Impurities were removed by centrifugation, and crude enzyme solution was obtained.\n10 ml of the enzyme solution was allowed to react with 10 ml of 1% Rb1 in acetate buffer containing 20% ethanol at 40° C. for 20 hours. […] The optimal reaction temperature for the enzymes is 50° C. and the optimal pH is pH 5.5."}, "[2]": {"test_system": "Enzymes from Malts", "experiment": "Hydrolysis of Rb1 with enzymes from malts", "type": "biochemical, malt", "details": "1% Rb1 solution, pH 5, 20% ethanol, 40° C., 20 hours", "procedure": "200 g of malt was ground and added to 1000 ml of 0.01 M acetate buffer pH 5 for extraction under room temperature for two hours. The mixture was filtrated. To the supernatant 3 volumes of ethanol was added and stand overnight. Precipitates were collected to which 50 ml of 0.01 M acetate buffer pH 5 was added. Insolubles were removed and enzyme solution was obtained. 10 ml of the enzyme solution was allowed to react with 10 ml of 1% Rb1 solution (in 0.01 M acetate buffer pH 5 containing 20% ethanol) at 40° C. for 20 hours. The product was detected by TLC. As a result, more than 95% Rb1 was converted to Rd, F2, C-K and Rg3 and the like."}, "[3]": {"test_system": "ginsenoside glycosidase III", "experiment": "Hydrolysis of ginsenoside Rd with ginsenoside glycosidase III (Fraction 18)", "type": "biochemical, Aspergillus niger", "details": "substrate 0.5%, pH 5.0, 30° C., 18 hours", "procedure": "Ginsenoside glycosidase II was purified from the crude enzyme solution obtained in 1.1 by HPLC. Separation column: Bio-Scale Q (BioRad), 2 ml/tube. 1 ml of the crude enzyme solution was loaded on the column, and eluted with solvent A (25 mM Tris-HCl buffer pH 7.4) and solvent B (0.5M NaCl in 20 mM Tris-HCl buffer pH 7.4). Fraction 18 appeared as a single dot when running on a SDS-polyacrylamide gel and thus represented a purified enzyme. The enzyme was designated as ginsenoside glycosidase III. This enzyme can hydrolyze the diglucosyl groups at C-3 of aglycone, converting Rd and Rg3 to C-K and aglycone.\nTo observe the differences between the ginsenoside glycosidases of the invention and known exo-cellulases, the ginsenoside glycosidases of the invention were compared with cellulose β-glucosidase (E.C. 3.2.1.21) in two reactions with 0.5% ginsenosides Rb1 or Rd as substrate."}, "[4]": {"test_system": "Ginsenoside Glycosidases from Yeast", "experiment": "Hydrolysis of Rd with ginsenoside glycosidases from yeast", "type": "biochemical, Candida sp. FFCCDL-2 g", "details": "0.5% Rd in acetate buffer, 60° C., 12 hours", "procedure": "Candida sp. FFCCDL-2 g (available from Food Fermentation Culture Collection of Dalian Institute of Light Industry) was cultured with shaking at 30° C. for 56 hours in a medium containing 2% by weight of ginseng extracts and 8% by weight of malt extracts. Cells were removed by centrifugation, after which (NH4)2SO4 powder was added to 500 ml of the cell-free supernatant to 65% saturation. The solution was dialyzed against 0.01M acetate buffer pH 5. Insolubles were removed by centrifugation, and 25 ml of crude enzyme solution was obtained.\n10 ml of the enzyme solution was allowed to react with 10 ml of 0.5% Rd in acetate buffer at 60° C. for 12 hours. […] The enzymes can also hydrolyze β-(1→2)-glucoside of Rg3 to give Rh2."}, "[5]": {"test_system": "ginsenoside glycosidases from Streptomyces", "experiment": "Hydrolysis of Rd with ginsenoside glycosidases from Streptomyces", "type": "biochemical, Streptomyces sp. FFCCDL-2 g", "details": "1% Rd in acetate buffer containing 20% ethanol, 50° C., 20 hours", "procedure": "Streptomyces sp. FFCCDL-2 g (available from Food Fermentation Culture Collection of Dalian Institute of Light Industry) was cultured at 30° C. for 48 hours in a medium containing 1% by weight of ginseng extracts and 3% by weight of wheat bran extracts. Cells were removed by centrifugation, after which (NH4)2SO4 powder was added to 300 ml of the cell-free supernatant to 70% saturation to precipitate the enzymes. The solution was stored at 4° C. overnight and centrifuged to collect the pellets. The pellets were resuspended and the suspension was dialyzed against 0.01M acetate buffer pH 5. Impurities were removed by centrifugation, and 15 ml of crude enzyme solution was obtained.\n10 ml of the enzyme solution was allowed to react with 10 ml of 1% Rd in acetate buffer containing 20% ethanol at 50° C. for 20 hours."}, "[6]": {"test_system": "ginsenoside glycosidase III from ginseng plant", "experiment": "Hydrolysis of Rd with fraction 37 (ginsenoside glycosidase III) from ginseng plant", "type": "biochemical", "details": "Fraction 37; substrate 0.5%; 50° C., pH 5.0, 18 hours", "procedure": "200 g of fresh ginseng root was cut into pieces and added to 600 ml of 0.02 M acetate buffer pH 5. Supernatant was obtained by filtration after the mixture stand at 40° C. for 2 hours. To the supernatant (NH4)2SO4 was added gradually until 70% saturation and the mixture stand overnight at 4° C. Then protein pellets were collected by centrifugation and redissolved in 15 ml of distilled water. The solution was dialyzed against 0.02 M Tris-HCl pH 7.4. Insolubles were removed by centrifugation and the volume of the supernatant was adjusted to 20 ml.\n5 ml of the enzyme solution was subjected to a DEAE-Cellulose DE-25 column (Whatman, 1.4×6.7 cm). The column was eluted with a KCl gradient (0.06, 0.12, 0.18 and 0.24 M) in 0.02 M Tris-HCl pH 7.4. After elution, each fraction was tested for the activity of hydrolyzing ginsenosides. […] Fraction 52 can also hydrolyze the glucosidic bond at the twentieth carbon atom of Rb and Rc to give ginsenoside F2."}},
  "data": [
    {"smiles": "CC(C)=CCC[C@](C)(O[C@@H]1O[C@H](CO[C@@H]2O[C@H](CO)[C@@H](O)[C@H](O)[C@H]2O)[C@@H](O)[C@H](O)[C@H]1O)[C@H]1CC[C@]2(C)[C@@H]1[C@H](O)C[C@@H]1[C@@]3(C)CC[C@H](O[C@@H]4O[C@H](CO)[C@@H](O)[C@H](O)[C@H]4O[C@@H]4O[C@H](CO)[C@@H](O)[C@H](O)[C@H]4O)C(C)(C)[C@@H]3CC[C@]12C", "note": "[Rb1, ginsenoside Rb1]", "values": [
      {"measurement": "C-K in the product mixture", "setting": "[1]", "result": 35, "unit": "%"},
      {"measurement": "F2 in the product mixture", "setting": "[1]", "result": 40, "unit": "%"},
      {"measurement": "Rd in the product mixture", "setting": "[1]", "result": 25, "unit": "%"},
      {"measurement": "Rb1 converted to Rd, F2, C-K and Rg3 and the like", "setting": "[2]", "result": "more than 95%"}
    ]},
    {"smiles": "CC(C)=CCC[C@](C)(O[C@@H]1O[C@H](CO)[C@@H](O)[C@H](O)[C@H]1O)[C@H]1CC[C@]2(C)[C@@H]1[C@H](O)C[C@@H]1[C@@]3(C)CC[C@H](O[C@@H]4O[C@H](CO)[C@@H](O)[C@H](O)[C@H]4O[C@@H]4O[C@H](CO)[C@@H](O)[C@H](O)[C@H]4O)C(C)(C)[C@@H]3CC[C@]12C", "note": "[Rd, ginsenoside Rd]", "values": [
      {"measurement": "Percentage of C—K in the reaction product", "setting": "[3]", "result": 36, "unit": "%"},
      {"measurement": "Percentage of Rd in the reaction product", "setting": "[3]", "result": 61, "unit": "%"},
      {"measurement": "Percentage of aglycone in the reaction product", "setting": "[3]", "result": 3, "unit": "%"},
      {"measurement": "Rd converted to ginsenoside F2", "setting": "[4]", "result": 73, "unit": "%"},
      {"measurement": "Rd converted to ginsenoside F2", "setting": "[5]", "result": 50, "unit": "%"},
      {"measurement": "Percentage of C—K in the reaction product", "setting": "[6]", "result": 55, "unit": "%"},
      {"measurement": "Percentage of Rd in the reaction product", "setting": "[6]", "result": 45, "unit": "%"}
    ]}
  ]
}
